Measured values published in patent US11643415B1, “Rabeximod compounds” (CYXONE AB, priority 2021, dated 2023).
Converted amounts (≈) assume the structure as drawn. Structures can show the parent of a compound that is named as a salt. Marks after values point to notes of the source that are not given here.

Experiments:
[1] = Pharmacokinetic characterization after i.v. and p.o. administration to male CD-1 mice; type: in vivo; details: for CL as % of mouse liver blood flow: liver blood flow 120 ml/min/kg
Protocol: IV formulations were prepared on the day of dosing. The formulations were prepared by weighing the compound into brown glass vial; on the day of dosing ClinOleic 20% intravenous fat emulsion ([…], Tamro) was added into tubes (1,5 mg/mL in 20% ClinOleic). Formulations were homogenized 5 minutes before dosing. IV formulations were administered within 5 hours after preparation.
PO formulations were prepared day before administration. The formulations were prepared by formulating the test items in PO vehicle (6 mg/ml in 0.45% (v/v) Tween 80-0.11% (w/v) sodium carboxy methylcellulose (CMC) in tap water). The suspensions were mixed with vortex and stored refrigerated (+4° C.) over night. On the day of dosing formulations were homogenized 15 minutes before dosing.
Naïve animals were used in the study (see Table 6). They were housed in individually ventilated (IVC)-cages in groups of six mice. The cages were provided with aspen bedding (4HP and PM90L, Tapvei, Estonia) and paper strands (Sizzlenest, Datesand, UK) as nesting material, and a paper pulp cabin and red polycarbonate cylinder (Datesand, UK) as cage enrichment. The temperature (22±2° C.), humidity (55±10%) and air exchange rate (75 times/h) of the IVC-cages and 12/12-h light/dark cycle (500 lux lighting on at 6 a.m., 1.5 lux lighting […].) of the animal holding room were automatically controlled and maintained. Animals were allowed to acclimatize to the site for at least five days prior to the study. Animals had ad libitum access to food (SDS diets, RM1 (E) 801002, Special Diets Services, UK) and tap water at all times, and their welfare was assured with daily observations.
Study compounds were administered via the specified route and the times of dosing and blood sampling were recorded. Within 30 min following the sampling, the blood was centrifuged for plasma separation (room temperature; 10 min; 2700 G). The plasma samples were transferred into plastic tubes, frozen and stored at −20° C. until analysis. Clinical signs and general behavior of the animals were recorded, when necessary.
The pharmacokinetic parameters were calculated using Phoenix 64 (Build 6.4.0.768) WinNonlin (version 6.4) software, using non-compartmental methods (NCA). Nominal doses were used for all animals. The terminal phase half-life (T1/2) was calculated by least-squares regression analysis of the terminal linear part of the log concentration—time curve. The area under the plasma concentration—time curve (AUC) was determined with the linear trapezoidal rule for increasing values and log trapezoidal rule for decreasing values up to the last measurable concentration (AUC0-last), and extrapolation of the terminal elimination phase to infinity was used when possible; the following criteria were used:
Minimum of 3 points (not including Cmax) used to calculate lambda (with R^2 adjusted >0.85)
T1/2 shorter than the time-span used to calculate lambda
The maximum plasma concentration (Cmax) and the time to reach Cmax (tmax) were derived directly from the plasma concentration data.

[2] = Qualitative solubility determination in water at room temperature (visual, water added until dissolved); type: physicochemical; details: for Solubility in water: RT, estimated by adding water to the salt until dissolved; for Dissolution in water (in words): room temperature
Protocol: The solubility of the salts in water at RT was estimated by adding water to the salt until the salt dissolved. […] From the TGMS data it was estimated whether the salts are stochiometric hydrates or not.
The solubility of a selection of salts from the salt screen was estimated at room temperature in water. To approximately 2 mg of salt, solvent aliquots were added in steps of 50 μl until the material was dissolved as observed visually by the naked eye.

[3] = Accelerated aging conditions (AAC), solid form remeasured by XRPD; type: physicochemical; details: 3 days at 40° C. and 75% RH
Protocol: All solids were exposed to AAC (40° C./75% RH for 3 days) and remeasured by HT-XRPD. After that, 750 μl of a selected solvent was added. The vials were transferred to a Crystal16™ parallel crystallizer and the suspensions were stirred at 750 rpm at 50° C. for 18h after which the suspensions were subjected to centrifugation and the solids were isolated, dried under vacuum (50° C., 5 mbar, 18 h) and analyzed by HT-XRPD. The experimental conditions and results are shown below in Table 1 and Table 2 for the first and second set of experiments, respectively. The obtained XRPD patterns for the crystallinesalts made are shown in FIGS. 1 (HCl), 2 (Mao) and 3 (Mes).
Experimental conditions and results of the hydrochloride and malonic acid salt crystallization experiments. In all experiments, 750 μl of solvent was used. Counterion (Cl) abbreviations denote pure counterions whereas counterions with a number denote novel salt forms. After subjecting suspensions of API:Cl to thermocycles, the solids were isolated, dried (5 mbar, 50° C., 18 h) and analyzed by XRPD. The liquid phases were dried, and the resulting solids were analyzed by XRPD. Most solids were subjected to AAC (40° C., 75% RH, 3 days) and remeasured by XRPD.

[4] = Quantitative (thermodynamic) solubility determination, shake-flask, LCMS against calibration line; type: physicochemical; details: for Solubility in water: room temperature, suspensions stirred for 18 h, LCMS; for solubility at 4 h: 25 °C, thermodynamic from solid
Protocol: The thermodynamic solubility of Rabeximod free base (Form 1) was determined in 3 different USP buffers (50 mM) ranging from pH 1.2 to pH 7.4 and in water (Exp. ID: QSA21-24) by the shake-flask method at 25° C. (
Table ). Approximately 30 mg was added to approximately 1 ml of the selected buffer and the resulting suspension was equilibrated at RT for 4 hours under continuous stirring. After 15 min and after 4 h of stirring, the pH of the solution was recorded. Upon completion of the equilibration time, the suspensions were centrifuged. The solution was filtered and diluted before LCMS analysis to determine the API concentration in solution. The residue was dried under vacuum and the obtained dried solids were analyzed by XRPD. A standard LC calibration curve was prepared, and the diluted mother liquors were measured to determine the API concentration.
The solubility of the freebase (Form 1) and salts prepared by scale-up was determined in water at room temperature. Suspensions were stirred for 18 h after which the liquid phase was isolated and measured by LCMS against a calibration line. The solids were dried and measured by XRPD to determine the solid form. The lowest solubility was determined for the freebase (Form 1). The signal was lower than the calibration line and therefore the solubility was determined to be <0.005 mg/ml. […] The experimental details are described in table 5.
Table 5. Experimental details and results of the solubility determination for Rabeximod free base Form 1) as well as salt Mes1 in water and in 3 buffers with pH range 1.2-7.4. The pH of the solutions after 15 minutes and 4 hours are reported. The solubility was determined after 4h equilibration by measuring the liquid phase with LCMS against a calibration line.

[5] = Dynamic vapor sorption (hygroscopicity / moisture sorption); type: physicochemical
Protocol: Differences in hygroscopicity (moisture uptake) of the various forms of a solid material provided a measure of their relative stability at increasing relative humidity. Moisture sorption isotherms of small samples were obtained using a DVS-1 system from Surface Measurement Systems (London, UK); this instrument is suitable for use with a few milligrams of sample, with an accuracy of 0.1 μg. The relative humidity was varied during sorption-desorption-sorption (40-95-0-40% RH) at a constant temperature of 25° C. Weight equilibration per step was set at dm/dt <0.0002 mg/min for a minimum of 1 hour or maximum of 6 hours. Afterwards the sample was measured by HT-XRPD.
The hygroscopicity was classified according to the European Pharmacopoeia Hygroscopicity classification. Water uptake percentage at 25° C./80%RH (24h) is:
Change in mass <0.2%—Non-hygroscopic
Change in mass >2% & <15%—Moderately hygroscopic
Change in mass >15%—Very hygroscopic

[6] = i.v., 3.00 mg/kg, male CD1 mice
[7] = p.o., 30.0 mg/kg, male CD1 mice
[8] = male, CD-1, mouse, plasma, iv, 3 mg/kg, male CD1 mice
[9] = male, CD-1, mouse, plasma, po, 30 mg/kg, male CD1 mice

Row | AUC0-inf [1, 6] [ng·h/mL] | T1/2 [1, 6] [h] | Time of peak plasma concentration (tmax) [1, 6] [h] | Vss [1, 6] [L/kg] | clearance [1, 6] [mL/min/kg] | mean C0 [1, 6] [ng/mL] | mean Cmax [1, 6] [ng/mL] | CL as % of mouse liver blood flow ([1]; i.v., 3.00 mg/kg) [%] | AUC0-last [1, 7] | Time of peak plasma concentration (tmax) [1, 7] [h] | mean Cmax [1, 7] [ng/mL] | Solubility in water [2] [µg/mL] | Salt form after AAC [3] | SMILES | other results
1 | 2220 | 8.43 | 0.0833 | 14.2 | 22.6 | 600 | 454 | 18.8 | 13 700 h*ng/ml | 4.00 | 893 | 2000 to 5700 | HCl | Cc1cc2nc3c4cc(Cl)ccc4n(CC(=O)NCCN(C)C)c3nc2cc1C [Rabeximod HCl] | Solubility ([4]; medium water, listed as HCI (TCS160)): 5.45 mg/mL; Solubility in water ([4]; listed as HCl1): 5500 µg/mL
2 | 1870 | 8.43 | 0.0833 | 16.9 | 26.8 | 390 | 355 | 22.3 | 11 400 h*ng/ml | 0.17 | 1140 | 5500 to 10200 | Mao | Cc1cc2nc3c4cc(Cl)ccc4n(CC(=O)NCCN(C)C)c3nc2cc1C [Rabeximod Mao] | Solubility ([4]; medium water, listed as Mao (TCS161)): 5.26 mg/mL (≈ 12800 µM); Solubility in water ([4]; listed as Mao1): 5300 µg/mL (≈ 12900 µM)
3 | 681 | – | – | 49.4 | 73.4 | – | 150 | 61.2 | – | 4.00 | – | – | – | Cc1cc2nc3c4cc(Cl)ccc4n(CC(=O)NCCN(C)C)c3nc2cc1C [Rabeximod, 9-Chloro-2,3-dimethyl-6-(N,N-dimethylaminoethylamino-2-oxoethyl)-6H-indolo-[2,3-b]quinoxaline] | Tmax ([1]; male, CD-1, mouse, plasma, iv, 3 mg/kg, i.v., 3.00 mg/kg, male CD1 mice, read-out: Time of peak plasma concentration (tmax)): 5 min; C0 [1, 8]: 351 ng/mL; half-life [1, 8]: 8.99 h; AUC(0-t) [1, 9]: 8330 ng·h/mL; Cmax [1, 9]: 728 ng/mL; Dissolution in water (in words) [2]: close to insoluble in water; Dissolution in water (in words) ([2]; listed as freebase): no sign of dissolution; solubility at 4 h ([4]; HCl buffer, pH 1.2, simulated gastric fluid, medium HCl, pH buffer 1.2, 4 h equilibration): 13 µg/mL (≈ 31.7 µM); Solubility ([4]; medium phosphate buffer, pH buffer 6.5, 4 h equilibration, listed as Form 1 (SM)): 0.005* mg/ml; Solubility ([4]; medium phosphate buffer, pH buffer 7.4, 4 h equilibration, listed as Form 1 (SM)): <LOD; Solubility ([4]; medium water, listed as Form 1 (SM)): <0.005 mg/mL; Solubility in water ([4]; listed as freebase): < 5 µg/mL; Physical stability upon exposure to relative humidity ([5]; relative humidity values between 0-95%): remained physically stable; Hygroscopicity classification (European Pharmacopoeia) ([5]; water uptake at 25° C./80%RH): slightly hygroscopic
4 | 2320 | 9.80 | 0.0833 | 15.9 | 21.5 | 507 | 383 | 17.9 | 11 600 h*ng/ml | 2.00 | 707 | 13300 | Mes | Cc1cc2nc3c4cc(Cl)ccc4n(CC(=O)NCCN(C)C)c3nc2cc1C [Rabeximod Mes] | half-life [1, 9]: 8.93 h; Solubility ([4]; medium HCl, pH buffer 1.2, 4 h equilibration, listed as Mes (TCS35)): 0.014 mg/mL (≈ 34.2 µM); Solubility ([4]; medium phosphate buffer, pH buffer 6.5, 4 h equilibration, listed as Mes (TCS35)): 0.042 mg/mL (≈ 102 µM); Solubility ([4]; medium water, listed as Mes (TCS35)): 13.26 mg/mL (≈ 32300 µM); solubility at 4 h ([4]; phosphate buffer, pH 7.4, aqueous buffer, medium phosphate buffer, pH buffer 7.4, 4 h equilibration): 3 µg/mL (≈ 7.32 µM); Solubility in water ([4]; listed as Mes1): 13300 µg/mL (≈ 32400 µM); Water uptake ([5]; DVS, 25° C.): 12.2%; Form after DVS ([5]; sorption-desorption-sorption 40-95-0-40% RH, 25° C., HT-XRPD): Mes1
